The structures appear in SMILES notation. The source made the active and inactive calls. No cut-off for these calls is given here.

In ChEMBL document CHEMBL2163283, “Design and synthesis of novel stiripentol analogues as potential anticonvulsants” (Eur J Med Chem, 2012) one finds Activity and ED50 data, which are given here for twelve compounds.

Data set [1] deals with Mus musculus. Description: Anticonvulsant activity in Swiss albino mouse assessed as protection against subcutaneous pentylenetetrazol-induced seizures at 330 umol/kg, ip administered 30 mins before pentylenetetrazole challenge measured after 30 mins. It counts as functional.
Data set [2] has as its system Mus musculus. Description: Anticonvulsant activity in Swiss albino mouse assessed as protection against subcutaneous pentylenetetrazol-induced seizures at 330 umol/kg, ip administered 30 mins before pentylenetetrazole challenge measured after 30 mins relative to stiripentol. The class given is functional.
Data set [3] concerns Mus musculus. Put plainly: Anticonvulsant activity in Swiss albino mouse assessed as maximal electroshock-induced seizures at 330 umol/kg, ip administered 30 mins before electroshock challenge. The class given is functional.
Data set [4] relates to Mus musculus. Put plainly: Anticonvulsant activity in Swiss albino mouse assessed as protection against subcutaneous pentylenetetrazol-induced seizures at 390 umol/kg, ip administered 30 mins before pentylenetetrazole challenge measured after 30 mins. The class given is functional.
In data set [5] the test system is Mus musculus. Put plainly: Anticonvulsant activity in Swiss albino mouse assessed as protection against subcutaneous pentylenetetrazol-induced seizures at 390 umol/kg, ip administered 30 mins before pentylenetetrazole challenge measured after 30 mins relative to stiripentol. The class given is functional.
For data set [6], the system named is Mus musculus. Description: Anticonvulsant activity in Swiss albino mouse assessed as maximal electroshock-induced seizures at 390 umol/kg, ip administered 30 mins before electroshock challenge. The class given is functional, organism-based. A general note: Protection in the maximal electroshock model is a classic sign of anticonvulsant action.
Data set [7] deals with Mus musculus. Put plainly: Anticonvulsant activity in Swiss albino mouse assessed as protection against subcutaneous pentylenetetrazol-induced seizures at 384 umol/kg, ip administered 30 mins before pentylenetetrazole challenge measured after 30 mins. It counts as functional.
The subject of data set [8] is Mus musculus. Description: Anticonvulsant activity in Swiss albino mouse assessed as protection against subcutaneous pentylenetetrazol-induced seizures at 427 umol/kg, ip administered 30 mins before pentylenetetrazole challenge measured after 30 mins. The class given is functional.
In data set [9] the test system is Mus musculus. Put plainly: Anticonvulsant activity in Swiss albino mouse assessed as protection against subcutaneous pentylenetetrazol-induced seizures at 491 umol/kg, ip administered 30 mins before pentylenetetrazole challenge measured after 30 mins. The class given is functional.
Data set [10] deals with Mus musculus. Put plainly: Anticonvulsant activity in Swiss albino mouse assessed as protection against subcutaneous pentylenetetrazol-induced seizures at 534 umol/kg, ip administered 30 mins before pentylenetetrazole challenge measured after 30 mins. It counts as functional.
In data set [11] the test system is Mus musculus. Put plainly: Anticonvulsant activity in Swiss albino mouse assessed as protection against subcutaneous pentylenetetrazol-induced seizures at 576 umol/kg, ip administered 30 mins before pentylenetetrazole challenge measured after 30 mins. It counts as functional.
The subject of data set [12] is Mus musculus. Description: Anticonvulsant activity in Swiss albino mouse assessed as protection against subcutaneous pentylenetetrazol-induced seizures at 640 umol/kg, ip administered 30 mins before pentylenetetrazole challenge measured after 30 mins. The class given is functional.
For data set [13], the system named is Mus musculus. Description: Anticonvulsant activity in Swiss albino mouse assessed as maximal electroshock-induced seizures at 640 umol/kg, ip administered 30 mins before electroshock challenge. The class given is functional.
Data set [14] concerns Mus musculus. Put plainly: Anticonvulsant activity in Swiss albino mouse assessed as protection against subcutaneous pentylenetetrazol-induced seizures at 747 umol/kg, ip administered 30 mins before pentylenetetrazole challenge measured after 30 mins. The class given is functional.
Data set [15] concerns Mus musculus. Put plainly: Anticonvulsant activity in ip dosed Swiss albino mouse assessed as protection against subcutaneous pentylenetetrazol-induced seizures administered 30 mins before pentylenetetrazole challenge measured after 30 mins. It counts as functional.
Data set [16] relates to Mus musculus. Put plainly: Anticonvulsant activity in ip dosed Swiss albino mouse assessed as maximal electroshock-induced seizures administered 30 mins before electroshock challenge. It counts as functional.
In data set [17] the test system is Mus musculus. Description: Neurotoxicity in Swiss albino mouse assessed as effect on hindlimb grip strength at 747 umol/kg, sc administered measured every 15 mins for 2 hrs. The class given is toxicity, organism-based. The following applies: in vivo.
The subject of data set [18] is Mus musculus. Description: Neurotoxicity in Swiss albino mouse assessed as climbing response to inverted mesh at 747 umol/kg, sc administered measured every 15 mins for 2 hrs by wire mesh grasping test. It counts as toxicity, organism-based. The note with it: in vivo.
The test system of data set [19] is Mus musculus. Put plainly: Anticonvulsant activity in Swiss albino mouse assessed as protection against subcutaneous pentylenetetrazol-induced seizures at 346 umol/kg, ip administered 30 mins before pentylenetetrazole challenge measured after 30 mins. The class given is functional.
In data set [20] the test system is Mus musculus. Description: Anticonvulsant activity in Swiss albino mouse assessed as protection against subcutaneous pentylenetetrazol-induced seizures at 346 umol/kg, ip administered 30 mins before pentylenetetrazole challenge measured after 30 mins relative to stiripentol. The class given is functional.
Data set [21] deals with Mus musculus. Description: Anticonvulsant activity in Swiss albino mouse assessed as maximal electroshock-induced seizures at 346 umol/kg, ip administered 30 mins before electroshock challenge. It counts as functional.
The test system of data set [22] is Mus musculus. Put plainly: Neurotoxicity in Swiss albino mouse assessed as effect on hindlimb grip strength at 346 umol/kg, sc administered measured every 15 mins for 2 hrs. The class given is toxicity, organism-based. The following applies: in vivo.
The subject of data set [23] is Mus musculus. Put plainly: Neurotoxicity in Swiss albino mouse assessed as climbing response to inverted mesh at 346 umol/kg, sc administered measured every 15 mins for 2 hrs by wire mesh grasping test. The note with it: in vivo. It counts as toxicity, organism-based.
In data set [24] the test system is Mus musculus. Description: Anticonvulsant activity in Swiss albino mouse assessed as protection against subcutaneous pentylenetetrazol-induced seizures at 357 umol/kg, ip administered 30 mins before pentylenetetrazole challenge measured after 30 mins. The class given is functional.
Data set [25] relates to Mus musculus. Description: Anticonvulsant activity in Swiss albino mouse assessed as protection against subcutaneous pentylenetetrazol-induced seizures at 357 umol/kg, ip administered 30 mins before pentylenetetrazole challenge measured after 30 mins relative to stiripentol. It counts as functional.
Data set [26] concerns Mus musculus. Put plainly: Anticonvulsant activity in Swiss albino mouse assessed as maximal electroshock-induced seizures at 357 umol/kg, ip administered 30 mins before electroshock challenge. It counts as functional.
The test system of data set [27] is Mus musculus. Put plainly: Anticonvulsant activity in Swiss albino mouse assessed as protection against subcutaneous pentylenetetrazol-induced seizures at 370 umol/kg, ip administered 30 mins before pentylenetetrazole challenge measured after 30 mins. It counts as functional.
For data set [28], the system named is Mus musculus. Description: Anticonvulsant activity in Swiss albino mouse assessed as protection against subcutaneous pentylenetetrazol-induced seizures at 370 umol/kg, ip administered 30 mins before pentylenetetrazole challenge measured after 30 mins relative to stiripentol. The class given is functional.
The subject of data set [29] is Mus musculus. Put plainly: Anticonvulsant activity in Swiss albino mouse assessed as maximal electroshock-induced seizures at 370 umol/kg, ip administered 30 mins before electroshock challenge. It counts as functional, organism-based.

Take `CC(C)(C)C(/C=C/c1ccc2c(c1)OCO2)=N/NC(=O)Nc1ccc(Br)cc1`: the Activity in the data set on Mus musculus [1] was determined as 66%; in the data set on Mus musculus [2] it was 1.6%; with Mus musculus [3], 16%.

Take `Cc1ccccc1NC(=O)N/N=C(\C=C\c1ccc2c(c1)OCO2)C(C)(C)C`: the figures for the Activity in the data set on Mus musculus [4] and in the data set with Mus musculus [5] were 83% and 1.48 ratio to stiripentol, respectively. The result with Mus musculus [6] was inactive.

Consider `Cc1ccccc1NC(=O)N1N=C(C(C)(C)C)CC1c1ccc2c(c1)OCO2` (racemic), for which the figures for the Activity in the data set on Mus musculus [4] and in the data set with Mus musculus [5] were 16% and 0.95 ratio to stiripentol, respectively. In addition, the result with Mus musculus [6] was inactive.

In the case of `CC(C)(C)C1=NN(C(=O)Nc2ccc(Br)cc2)C(c2ccc3c(c2)OCO3)C1` (racemic), the Activity is reported as 33% with Mus musculus [1] and 1.29% in the data set with Mus musculus [2]. Besides, the outcome in the data set on Mus musculus [3] was inactive.

The ED50 is the midpoint of the dose-response relation. Regarding `CC(C)(C)C(O)/C=C/c1ccc2c(c1)OCO2` (stereo not drawn) [STIRIPENTOL], the Activity was 16% in the data set with Mus musculus [7]; 33% in the data set with Mus musculus [8]; 50% in the data set on Mus musculus [9]; 66% in the data set with Mus musculus [10]; 83% with Mus musculus [11]; 83% with Mus musculus [12]. Also, the Activity with Mus musculus [13] is listed as 66%; in the data set with Mus musculus [14], 100%; in the data set with Mus musculus [17] it was “Non-toxic”; in the data set on Mus musculus [18] it was “Non-toxic”. The ED50 amounted to 115 mg/kg in the data set with Mus musculus [15] and 277 mg/kg in the data set with Mus musculus [16].

For `CC(C)(C)C(/C=C/c1ccc2c(c1)OCO2)=N/NC(=O)Nc1ccc(F)cc1`, the values for the Activity in the data set with Mus musculus [4] and in the data set on Mus musculus [5] were 50% and 1.26 ratio to stiripentol, respectively. Further, the outcome in the data set with Mus musculus [6] was inactive.

With `CC(C)(C)C1=NN(C(=O)Nc2ccc(F)cc2)C(c2ccc3c(c2)OCO3)C1` (racemic), the Activity was 33% in the data set with Mus musculus [4] and 1.09 ratio to stiripentol in the data set with Mus musculus [5]. Further, the outcome with Mus musculus [6] was inactive.

As for `CC(C)(C)C1=NN(C(=O)c2ccc(Cl)cc2)C(c2ccc3c(c2)OCO3)C1` (racemic), the Activity in the data set on Mus musculus [4] is 50%; in the data set on Mus musculus [5], 1.26 ratio to stiripentol. The result in the data set with Mus musculus [6] was inactive.

For the compound `CC(C)(C)C(/C=C/c1ccc2c(c1)OCO2)=N/NC(N)=O`, the Activity in the data set on Mus musculus [19] is 50%; in the data set with Mus musculus [20], 1.42%; in the data set on Mus musculus [21], 100%; in the data set with Mus musculus [22] it was “Toxic”; with Mus musculus [23] it was “Toxic”. Also, in the data set with Mus musculus [16], the 50% effective dose (ED50) amounted to 87 mg/kg.

As to `Cc1ccc(NC(=O)N2N=C(C(C)(C)C)CC2c2ccc3c(c2)OCO3)cc1` (racemic), the Activity in the data set with Mus musculus [4] is given as 83%; in the data set on Mus musculus [5] it was 1.48 ratio to stiripentol. Besides, the result in the data set with Mus musculus [6] was inactive.

Regarding `CC(C)(C)C1=NN(C(=O)c2ccc(Cl)cc2Cl)C(c2ccc3c(c2)OCO3)C1` (racemic), the Activity came out at 33% in the data set with Mus musculus [24], 1.19% in the data set on Mus musculus [25] and 16% in the data set on Mus musculus [26].

For `CC(C)(C)C1=NN(C(=O)Nc2ccc(Cl)cc2)C(c2ccc3c(c2)OCO3)C1` (racemic), the figures for the Activity in the data set on Mus musculus [27] and with Mus musculus [28] were 33% and 1.15%, respectively. Moreover, the outcome in the data set with Mus musculus [29] was inactive.
